Source: patent publication US7063946B2, “Methods, reagents, kits and apparatus for protein function analysis” (Meso Scale Technologies, LLC., priority 2001, dated 2006)

Key:
Kit [1] = biological target: T1, Kit (Mus musculus, UniProt P05532); assay: Kinase inhibitor profiling, pEY phosphorylation; assay type: biochemical
T1 construct: specificity data for proteins generated from a library of eighteen full-length clones; biotin on random lysines (biotin-Lys-tRNA); host or cells: rabbit reticulocyte lysate, coupled transcription/translation (TnT, Promega)
T1 sequence (P05532 25-979): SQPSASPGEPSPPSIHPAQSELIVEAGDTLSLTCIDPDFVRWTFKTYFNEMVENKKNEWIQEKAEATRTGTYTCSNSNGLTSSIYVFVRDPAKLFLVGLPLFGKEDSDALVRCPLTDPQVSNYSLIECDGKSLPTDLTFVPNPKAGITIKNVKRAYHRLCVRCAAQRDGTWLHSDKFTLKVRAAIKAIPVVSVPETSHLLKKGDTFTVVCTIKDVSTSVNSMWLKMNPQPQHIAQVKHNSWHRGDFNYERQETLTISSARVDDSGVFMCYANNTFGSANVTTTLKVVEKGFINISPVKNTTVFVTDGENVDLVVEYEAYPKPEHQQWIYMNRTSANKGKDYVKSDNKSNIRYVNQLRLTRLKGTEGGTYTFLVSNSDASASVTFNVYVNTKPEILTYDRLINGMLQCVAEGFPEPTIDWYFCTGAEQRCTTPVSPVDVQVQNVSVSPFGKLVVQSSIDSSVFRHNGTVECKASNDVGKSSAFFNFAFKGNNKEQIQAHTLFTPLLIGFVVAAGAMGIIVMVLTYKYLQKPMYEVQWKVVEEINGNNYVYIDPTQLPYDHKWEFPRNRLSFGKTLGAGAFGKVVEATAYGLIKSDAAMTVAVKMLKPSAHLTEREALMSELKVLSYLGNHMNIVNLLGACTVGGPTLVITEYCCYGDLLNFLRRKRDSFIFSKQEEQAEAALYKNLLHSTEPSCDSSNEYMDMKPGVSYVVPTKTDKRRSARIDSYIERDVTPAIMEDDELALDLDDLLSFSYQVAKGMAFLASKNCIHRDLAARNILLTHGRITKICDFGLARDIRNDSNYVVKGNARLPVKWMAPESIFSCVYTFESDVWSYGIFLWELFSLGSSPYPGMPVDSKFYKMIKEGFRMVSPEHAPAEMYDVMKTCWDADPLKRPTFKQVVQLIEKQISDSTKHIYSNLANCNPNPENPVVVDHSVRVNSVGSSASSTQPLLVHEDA
Method: (§1) Proteins were produced in an in vitro transcription and translation reaction. […] The unbound components of the reaction containing endogenous kinases were removed by three washes with TT-buffer (25 mM Tris-HCl buffer pH 7.4 and 0.004% Triton), two five minutes washings with high-salt wash buffer (25 mM Tris-HCl buffer pH 7.4, 0.004% Triton, 1M NaCl and 5 mM DTT) and 3 more washes with TT-buffer. To these immobilized and purified proteins a tyrosine kinase substrate, 5 nM pEY (poly Glu-Tyr, Sigma, MO), was added in a 50 μl reaction solution containing 5 mM MgCl2, 5 mM MnCl2, 100 μM ATP, 25 mM Tris-HCl buffer pH 7.4, 0.05 mM Na3VO4, 0.004% TritonX-100, 2 mM DTT and EDTA-free protease inhibitor (Roche Molecular Biochemicals). This mixture was incubated with shaking at room temperature overnight to allow phosphorylation of the pEY substrate by the immobilized kinases. Following this incubation, 45 μl of this mixture was transferred to a streptavidin or avidin-coated NPT IPR plate coated with biotinylated anti-phosphotyrosine antibody (PY20, Zymed labs, CA) followed by incubation for 30 minutes at room temperature to allow the binding of the phosphorylated pEY substrate to the PY20 coated NPT plate. Following this binding step, 50 ng Sulfo-TAG labeled anti-phosphotyrosine in buffer containing 25 mM Tris-HCl buffer pH 7.4, 5 mM MgCl2, 0.05 mM Na3VO4, 0.004% TritonX-100, 2 mM DTT and 0.05% IgG was added followed by incubation at room temperature for 30 mm. The unbound reagents were removed by one time washing with water, and the TAG label was detected in presence of 150 μl IPR assay buffer (0.4 mM Gly-Gly buffer, pH 7.8, 1 mM EDTA, 0.1 M TPA). The ECL signals were measured using an imaging plate reader.
(§2) Proteins were produced using 100 ng of plasmid DNA Mock (Luciferase, Promega) or tyrosine kinases (Fert2 IMAGE ID # 4485050, FGFR1 IMAGE ID # 4037899, Fgfr2 IMAGE ID # 2654352, Src IMAGE ID # 3156400, BMX IMAGE ID # 3919253, LCK IMAGE ID # 4191610, Epha7 IMAGE ID # 3991628, Ephb4 IMAGE ID # 4013934, Tek IMAGE ID # 3482498, HCK IMAGE ID # 4778819, BTK IMAGE ID # 4478463, CSK IMAGE ID # 4398416, SYK IMAGE ID # 3870426, FGR IMAGE ID # 4419973, PTK2B IMAGE ID # 4339456, FRK(IMAGE ID # 4515877, Kit IMAGE ID # 2644960, Fgfr-4 IMAGE ID # 4239139, NTRK3 IMAGE ID # 4181574, Kdr IMAGE ID # 4238984, Incyte Genomics, CA) and immobilized on SA or avidin coated NPT-IPR plates as described in previous examples. The unbound components of the translation reaction (including any endogenous kinases) were removed by 3 washes with TT-buffer (25 mM Tris-HCl buffer pH 7.4 and 0.004% Triton), two five minutes washes with high-salt wash buffer (25 mM Tris-HCl buffer pH 7.4, 0.004% Triton, 1M NaCl and 5 mM DTT) and 3 washes with TT-buffer. […] The mixture was incubated at room temperature for 10 mm before starting the kinase reaction by adding 25 μl of 200 μM ATP in buffer A. This mixture was incubated with intermittent shaking at room temperature for 2 hours to overnight to allow (a) phosphorylation of the pEY substrate and (b) autophosphorylation of the immobilized kinases. Autophosphorylation and phosphorylation of the pEY was measured as described in Examples 7 and 8.
(§3) The ECL signal in control wells produced by tyrosine kinases was compared to the wells containing inhibitor compounds. The signal produced from Mock was negligible.

FRK = assay: Kinase inhibitor profiling, autophosphorylation; assay type: biochemical
Method: (§4) Proteins were produced from DNA plasmids of Mock Luciferase, Promega, tyrosine kinase clone Spleen Tyrosine kinase (SYK, IMAGE ID# 3870426) and Eph receptor-A7 (EphA7, IMAGE ID# 3991628) (Incyte Genomics, CA) and immobilized on streptavidin or avidin coated NPT-IPR plates as described in the Example 7. To promote autophosphorylation in these immobilized and purified proteins, Mn++ ions were added in a 50 μl reaction containing 5 mM MgCl2, 5 mM MnCl2, 100 μM ATP, 25 mM Tris-HCl buffer pH 7.4, 0.05 mM Na3VO4, 0.004% TritonX-100, 2 mM DTT and EDTA-free protease inhibitor (Roche Molecular Biochemicals). This mixture was incubated with shaking at room temperature overnight to allow autophosphorylation. Following this incubation, wells were washed 2 times with TT-buffer and 2 times with water. Following this step, 50 ng Sulfo-TAG labeled anti-phosphotyrosine in buffer containing 25 mM Tris-HCl buffer pH 7.4, 5 mM MgCl2, 0.05 mM Na3VO4, 0.004% TritonX-100, 2 mM DTT and 0.05% IgG in a final volume of 50 μl was added followed by incubation at room temperature for 45 min. The unbound reagents were removed by one time washing with water, and the TAG label was detected in presence of 150 μl IPR assay buffer (0.4 mM Gly—Gly buffer, pH 7.8, 1 mM EDTA, 0.1 M TPA). The ECL signals were measured using an imaging plate reader.
as §2, §3

[2] = system: tyrosine kinases reported to be the target of each inhibitor; conditions: read-out: reported IC50 concentration (1× concentration); for the kinase reported to be the target of the inhibitor; cited from earlier work
[3] = system: autophosphorylation (phosphotyrosine); assay: Autophosphorylation activity assay of immobilized in vitro translated protein; assay type: biochemical; conditions: 0.5 μl of TnT reaction
Method: as §4

pEY = assay: In vitro kinase library screen: activity towards pEY; assay type: biochemical; conditions: 5 ul of expressed protein
Method: as §1
(§5) Proteins were produced in an in vitro transcription and translation reaction as described in the Materials and Methods. […] The reaction was stopped by mixing with BB2 buffer. Biotinylated proteins from 50 μl of the mixture (representing 0.5 μl to 5 μl of TnT reaction) were immobilized onto streptavidin or avidin coated NPT-IPR plates by shaking at room temperature for 45 min. The activity of the immobilized protein towards pEY or autophosphorylation was further assayed by the methods described in examples 7 and 8.

[4] = system: autophosphorylation (phosphotyrosine); assay: In vitro kinase library screen: autophosphorylation; assay type: biochemical
Method: as §4, §5

CSK = biological target: T2, CSK (Homo sapiens, UniProt P41240); assay: Kinase inhibitor profiling, pEY phosphorylation; assay type: biochemical
T2 construct: specificity data for proteins generated from a library of eighteen full-length clones; host or cells: rabbit reticulocyte lysate, TnT coupled in vitro transcription/translation (cell-free)
T2 sequence (P41240 whole entry): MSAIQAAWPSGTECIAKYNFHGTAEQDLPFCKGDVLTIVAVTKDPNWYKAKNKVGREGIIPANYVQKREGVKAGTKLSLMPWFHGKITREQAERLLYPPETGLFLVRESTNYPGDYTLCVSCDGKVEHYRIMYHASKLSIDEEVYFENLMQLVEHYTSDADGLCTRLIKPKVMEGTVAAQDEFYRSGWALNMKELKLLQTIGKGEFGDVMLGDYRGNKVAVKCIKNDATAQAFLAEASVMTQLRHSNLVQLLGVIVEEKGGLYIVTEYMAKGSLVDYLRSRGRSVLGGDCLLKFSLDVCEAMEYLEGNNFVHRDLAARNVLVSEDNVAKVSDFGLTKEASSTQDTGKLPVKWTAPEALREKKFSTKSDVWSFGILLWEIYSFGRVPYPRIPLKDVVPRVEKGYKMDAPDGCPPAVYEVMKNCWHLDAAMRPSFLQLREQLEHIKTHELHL
Method: as §1, §2, §3

Fgfr4 [5] = biological target: T3, Fgfr4 (Mus musculus, UniProt Q03142); assay: Kinase inhibitor profiling, pEY phosphorylation; assay type: biochemical
T3 construct: specificity data for proteins generated from a library of eighteen full-length clones; biotin on random lysines (biotin-Lys-tRNA); host or cells: rabbit reticulocyte lysate, coupled transcription/translation (TnT, Promega)
T3 sequence (Q03142 17-799): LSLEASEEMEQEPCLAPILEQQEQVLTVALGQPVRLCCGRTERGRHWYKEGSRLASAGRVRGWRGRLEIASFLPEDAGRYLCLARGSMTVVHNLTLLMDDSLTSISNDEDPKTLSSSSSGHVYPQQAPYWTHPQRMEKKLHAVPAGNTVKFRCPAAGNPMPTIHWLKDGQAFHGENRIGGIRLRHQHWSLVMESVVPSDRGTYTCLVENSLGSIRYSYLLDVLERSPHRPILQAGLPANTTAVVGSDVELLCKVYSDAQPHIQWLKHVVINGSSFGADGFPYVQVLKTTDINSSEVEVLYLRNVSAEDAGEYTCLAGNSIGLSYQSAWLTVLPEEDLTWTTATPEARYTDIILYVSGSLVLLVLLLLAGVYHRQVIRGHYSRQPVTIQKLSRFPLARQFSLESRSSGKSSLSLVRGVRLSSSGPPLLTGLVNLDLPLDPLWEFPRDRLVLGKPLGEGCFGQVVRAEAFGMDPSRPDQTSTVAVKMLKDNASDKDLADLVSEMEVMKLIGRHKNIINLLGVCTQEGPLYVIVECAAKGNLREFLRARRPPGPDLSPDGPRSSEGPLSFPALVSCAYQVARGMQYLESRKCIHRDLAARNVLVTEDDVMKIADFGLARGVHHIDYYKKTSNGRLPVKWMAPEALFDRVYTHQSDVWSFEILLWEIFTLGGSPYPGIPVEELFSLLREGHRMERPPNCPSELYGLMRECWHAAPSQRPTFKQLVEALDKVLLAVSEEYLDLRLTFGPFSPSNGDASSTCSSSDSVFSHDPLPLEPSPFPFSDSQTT
Method: as §1, §2, §3

HCK = biological target: T4, HCK (Homo sapiens, UniProt P08631); assay: Kinase inhibitor profiling, pEY phosphorylation; assay type: biochemical
T4 construct: specificity data for proteins generated from a library of eighteen full-length clones; host or cells: rabbit reticulocyte lysate, TnT coupled in vitro transcription/translation (cell-free)
T4 sequence (P08631 whole entry): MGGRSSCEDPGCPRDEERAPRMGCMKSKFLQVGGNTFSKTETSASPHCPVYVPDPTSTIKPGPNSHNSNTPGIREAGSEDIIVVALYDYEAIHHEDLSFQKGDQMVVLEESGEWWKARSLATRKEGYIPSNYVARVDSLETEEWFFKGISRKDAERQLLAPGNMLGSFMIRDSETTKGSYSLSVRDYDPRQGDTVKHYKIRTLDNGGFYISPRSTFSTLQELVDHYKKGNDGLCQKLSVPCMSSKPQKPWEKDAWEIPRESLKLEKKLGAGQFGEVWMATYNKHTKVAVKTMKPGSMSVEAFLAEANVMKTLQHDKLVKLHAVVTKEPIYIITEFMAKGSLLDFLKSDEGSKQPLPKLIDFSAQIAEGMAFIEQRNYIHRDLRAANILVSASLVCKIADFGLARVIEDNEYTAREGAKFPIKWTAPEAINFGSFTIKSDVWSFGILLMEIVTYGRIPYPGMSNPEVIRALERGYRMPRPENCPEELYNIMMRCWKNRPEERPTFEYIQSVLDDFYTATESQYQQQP
Method: as §1, §2, §3

PTK2B [6] = biological target: T5, PTK2B (Homo sapiens, UniProt Q14289); assay: Kinase inhibitor profiling, pEY phosphorylation; assay type: biochemical
T5 construct: specificity data for proteins generated from a library of eighteen full-length clones; host or cells: rabbit reticulocyte lysate, TnT coupled in vitro transcription/translation (cell-free)
T5 sequence (Q14289 whole entry): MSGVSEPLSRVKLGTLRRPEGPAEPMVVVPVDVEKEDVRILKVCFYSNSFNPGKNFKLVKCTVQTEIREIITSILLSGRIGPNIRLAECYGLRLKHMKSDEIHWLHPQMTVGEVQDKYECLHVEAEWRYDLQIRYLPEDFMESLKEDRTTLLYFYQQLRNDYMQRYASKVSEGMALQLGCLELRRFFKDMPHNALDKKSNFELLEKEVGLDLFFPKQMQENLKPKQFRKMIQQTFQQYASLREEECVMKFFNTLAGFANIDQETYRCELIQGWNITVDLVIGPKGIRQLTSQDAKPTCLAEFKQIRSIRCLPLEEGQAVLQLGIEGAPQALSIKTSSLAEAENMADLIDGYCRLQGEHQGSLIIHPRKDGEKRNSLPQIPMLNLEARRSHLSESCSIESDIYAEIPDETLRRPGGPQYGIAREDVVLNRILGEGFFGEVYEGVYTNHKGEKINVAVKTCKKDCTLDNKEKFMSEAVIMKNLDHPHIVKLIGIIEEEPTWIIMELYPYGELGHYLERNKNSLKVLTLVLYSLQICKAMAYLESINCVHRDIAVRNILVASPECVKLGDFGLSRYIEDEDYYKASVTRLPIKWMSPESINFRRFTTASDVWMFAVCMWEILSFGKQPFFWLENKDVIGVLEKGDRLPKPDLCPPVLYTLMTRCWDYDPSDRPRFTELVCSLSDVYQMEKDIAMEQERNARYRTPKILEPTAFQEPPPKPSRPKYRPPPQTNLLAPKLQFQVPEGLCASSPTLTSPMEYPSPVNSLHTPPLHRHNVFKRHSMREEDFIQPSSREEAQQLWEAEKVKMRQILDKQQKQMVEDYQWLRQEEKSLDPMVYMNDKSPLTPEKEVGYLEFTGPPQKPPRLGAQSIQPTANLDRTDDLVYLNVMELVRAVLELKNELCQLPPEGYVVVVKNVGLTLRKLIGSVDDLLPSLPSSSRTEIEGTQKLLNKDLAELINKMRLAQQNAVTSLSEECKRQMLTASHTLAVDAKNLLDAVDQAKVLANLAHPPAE
Method: as §1, §2, §3

SYK [7] = biological target: T6, SYK (Homo sapiens, UniProt P43405); assay: Kinase inhibitor profiling, pEY phosphorylation; assay type: biochemical
T6 construct: autophosphorylation activity from full-length clones Spleen Tyrosine Kinase (SYK) and Eph receptor-A7 (EphA7); host or cells: rabbit reticulocyte lysate, TnT coupled in vitro transcription/translation (cell-free)
Method: as §1, §2, §3

Fgfr4 [8] = biological target: T3, Fgfr4; assay: Kinase inhibitor profiling, autophosphorylation; assay type: biochemical
Method: as §4, §2, §3

Kit [9] = biological target: T1, Kit; assay: Kinase inhibitor profiling, autophosphorylation; assay type: biochemical
Method: as §4, §2, §3

PTK2B [10] = biological target: T5, PTK2B; assay: Kinase inhibitor profiling, autophosphorylation; assay type: biochemical
Method: as §4, §2, §3

SYK [11] = biological target: T6, SYK; assay: Kinase inhibitor profiling, autophosphorylation; assay type: biochemical
Method: as §4, §2, §3

EphB4 = biological target: T7, EphB4 (Mus musculus, UniProt P54761); assay: Kinase inhibitor profiling, autophosphorylation; assay type: biochemical
T7 construct: specificity data for proteins generated from a library of eighteen full-length clones; host or cells: rabbit reticulocyte lysate, TnT coupled in vitro transcription/translation (cell-free)
T7 sequence (P54761 16-987): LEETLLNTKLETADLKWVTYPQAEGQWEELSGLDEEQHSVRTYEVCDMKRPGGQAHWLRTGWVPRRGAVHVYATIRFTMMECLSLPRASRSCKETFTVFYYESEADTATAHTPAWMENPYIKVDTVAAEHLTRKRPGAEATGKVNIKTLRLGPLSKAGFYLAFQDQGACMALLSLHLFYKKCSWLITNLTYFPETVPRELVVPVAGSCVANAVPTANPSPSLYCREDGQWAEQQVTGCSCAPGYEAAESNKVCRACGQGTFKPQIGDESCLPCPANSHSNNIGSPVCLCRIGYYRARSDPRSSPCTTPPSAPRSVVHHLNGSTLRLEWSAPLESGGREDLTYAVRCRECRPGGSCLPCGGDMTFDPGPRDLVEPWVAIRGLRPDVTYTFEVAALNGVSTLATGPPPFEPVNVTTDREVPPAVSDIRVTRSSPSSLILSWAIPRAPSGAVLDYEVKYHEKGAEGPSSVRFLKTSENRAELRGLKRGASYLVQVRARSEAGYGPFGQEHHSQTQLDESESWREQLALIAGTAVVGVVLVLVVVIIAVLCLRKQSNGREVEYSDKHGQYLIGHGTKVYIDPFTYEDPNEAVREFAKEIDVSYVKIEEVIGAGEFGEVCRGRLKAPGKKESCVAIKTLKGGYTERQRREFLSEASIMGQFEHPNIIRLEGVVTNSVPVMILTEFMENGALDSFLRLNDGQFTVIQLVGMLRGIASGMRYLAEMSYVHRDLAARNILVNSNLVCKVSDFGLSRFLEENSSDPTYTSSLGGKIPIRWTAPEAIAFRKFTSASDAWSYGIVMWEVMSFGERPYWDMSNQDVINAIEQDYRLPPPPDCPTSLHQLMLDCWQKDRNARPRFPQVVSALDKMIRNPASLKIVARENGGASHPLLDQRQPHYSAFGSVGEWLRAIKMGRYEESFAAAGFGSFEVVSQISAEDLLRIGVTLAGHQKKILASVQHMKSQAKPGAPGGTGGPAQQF
Method: as §4, §2, §3

In the case of `CC(C)(C)n1nc(-c2ccc(Cl)cc2)c2c(N)ncnc21` [PP2], the “Inhibition specificity towards pEY phosphorylation at 10X IC50, Kit” value (Kit [1]) is listed as “L (low inhibition (“L”=between 50–75% of the activity remaining))”, the “Inhibition specificity towards Autophosphorylation at 10X IC50, FRK” value (FRK) is listed as “L (low inhibition (“L”=between 50–75% of the activity remaining))” and the IC50 [2] is listed as 4 nM.
With “3991628: IMAGE clone protein: EPHA7, Eph receptor A7 [compound 3991628]” the ECL signal [3] was 39,967, the “fold higher ECL signal than background produced by Mock (Luciferase)” value [3] was roughly 47 fold and the HTS signal (pEY) was 24,930. The ECL signal [4] was 115,662.
For `O=C1Nc2ccccc2/C1=C/c1ccc[nH]1` [Oxindole 1], the “Inhibition specificity towards pEY phosphorylation at 10X IC50, CSK” value (CSK) was “M (medium inhibition (“M”=between 25 to 50% of the activity remaining))”, the “Inhibition specificity towards pEY phosphorylation at 10X IC50, Fgfr4” value (Fgfr4 [5]) was “M (medium inhibition (“M”=between 25 to 50% of the activity remaining))” and the “Inhibition specificity towards pEY phosphorylation at 10X IC50, HCK” value (HCK) was “L (low inhibition (“L”=between 50–75% of the activity remaining))”. For the same molecule, the “Inhibition specificity towards pEY phosphorylation at 10X IC50, Kit” value (Kit [1]) was “H (high inhibition (“H”=less than 25% of the activity remaining))”, the “Inhibition specificity towards pEY phosphorylation at 10X IC50, PTK2B” value (PTK2B [6]) was “M (medium inhibition (“M”=between 25 to 50% of the activity remaining))” and the “Inhibition specificity towards pEY phosphorylation at 10X IC50, SYK” value (SYK [7]) was “L (low inhibition (“L”=between 50–75% of the activity remaining))”. For the same molecule, the “Inhibition specificity towards Autophosphorylation at 10X IC50, Fgfr4” value (Fgfr4 [8]) was “L (low inhibition (“L”=between 50–75% of the activity remaining))”, the “Inhibition specificity towards Autophosphorylation at 10X IC50, Kit” value (Kit [9]) was “M (medium inhibition (“M”=between 25 to 50% of the activity remaining))” and the “Inhibition specificity towards Autophosphorylation at 10X IC50, PTK2B” value (PTK2B [10]) was “L (low inhibition (“L”=between 50–75% of the activity remaining))”. For the same molecule, the “Inhibition specificity towards Autophosphorylation at 10X IC50, SYK” value (SYK [11]) was “L (low inhibition (“L”=between 50–75% of the activity remaining))”.
For `N#C/C(=C\c1ccc(O)c(O)c1)C(=O)c1ccc(O)c(O)c1` [AG-538], the “Inhibition specificity towards Autophosphorylation at 10X IC50, Ephb4” value (EphB4) is given as “L (low inhibition (“L”=between 50–75% of the activity remaining))” and the IC50 [2] is given as 60 nM.
